Test results as given in publication PMC12992715, “Dual interference with host neuropeptide signaling allows parasitoid wasp to hijack host sugar metabolism” (The EMBO Journal, 2025).
No end group written: not given here.

How the values were obtained:
PxsNPFR = test: cAMP-Glo assay: inhibition of forskolin-induced cAMP accumulation in PxsNPFR-expressing HEK293 cells; format: cell-based, Plutella xylostella
Procedure: Cells were treated with 10 μM forskolin and various concentrations of the indicated peptide for 15 min at 37 °C (n = 3). […] Data are represented as mean ± SEM. *P<0.05, **P< 0.01, ***P< 0.005, not shown P > 0.05. […] (A) Two-tailed unpaired Student’s t test; (B–H) one-way ANOVA and Tukey’s multiple comparison tests.
Measurement of cyclic AMP in the HEK293/PxsNPFR cell line was accomplished with the cAMP-Glo™ Assay (Promega) according to the manufacturer’s instructions. Cells were seeded into the 96-well tissue culture plate (Thermo) overnight to grow at a recommended cell density (2500-10,000 cells/well). For the assay, cells were washed three times with PBS and then stimulated with 10 μM forskolin (Beyotime, added with 500 μM IBMX, Sigma-Aldrich) alone or 10 μM forskolin (added with 500 μM IBMX) with the indicated concentrations of synthetic sNPF for 15 min at room temperature. To generate a cAMP standard curve, cAMP standards supplied with the kit were prepared in a separate 96-well. Chemiluminescent signals were measured for 1 s/well on a SpectraMax iD5 Multi-Mode Microplate Reader (Molecular Devices).

P. xylostella larvae [1] = test: Circulating haemolymph trehalose after injection of synthetic sNPF peptides, venom, CvBV or teratocyte content; format: in vivo, Plutella xylostella; settings: words
Procedure: (§1) Microinjections were performed under a Stemi 2000C microscope (Zeiss) using glass capillary injection needles and an Eppendorf Femtojet (Eppendorf) with a microcontroller (Narishige). To confirm the function of bovine insulin on hosts, 1 μg bovine insulin (Sigma-Aldrich, I0305000) was injected into the middle 3rd instar P. xylostella larvae. To identify the effect of each parasitic factor on hosts, 0.05 FE CvBV or 0.05 VRE venom was injected into the abdomen of the middle 3rd instar P. xylostella larva (Wang et al, [2018]; Yu et al, [2007]). 1 TE teratocytes’ content was microinjected into the early 4th instar P. xylostella larvae. To confirm the function of each synthetic sNPF peptide, 0.005 ng, 0.05 ng, or 0.5 ng of each peptide was injected into the middle 3rd instar P. xylostella larvae in a volume of 0.1 μl/per larva once per day for 3 consecutive days.
For P. xylostella larvae, 1 μl of haemolymph from the moth was diluted 60-fold in cold PBS and subjected to trehalose determination. The fat body of P. xylostella larvae was homogenised in 200 μl of cold PBS. Half of the homogenate was centrifuged at 13,000 rpm for 15 min, and the supernatant was used for protein content determination by Bradford Reagent (Invitrogen). The rest was heated at 70 °C for 5 min followed by centrifuging at 13,000 rpm for 15 min, and the supernatant was used for glycogen determination.
Trehalose content determination was performed by the anthrone sulfate method. 15 μL of the sample was incubated with 15 μL of 1% H2SO4 at 90 °C for 10 min, then 15 μL of 30% KOH was added and incubated at 90 °C for 10 min. Finally, 300 μl of 0.2% anthrone (Sigma-Aldrich) solution in 96% H2SO4 was added and incubated at 90 °C for 10 min. All reactions were stopped by immersion in ice. To create a trehalose standard curve, 15 μl of trehalose standards (Sigma-Aldrich) were treated similarly as a sample. Finally, 100 μl of each sample was added to a 96-well plate. The absorbance of samples was then measured at 630 nm on a SpectraMax® iD5 Multi-Mode Microplate Reader (Molecular Devices), and the trehalose levels were calculated based on the standard curve and normalised by protein content or sample volume.

[2] = system: PxGP, PxHK and PxTPS mRNA; test: qPCR of PxGP, PxHK, PxTPS in larvae injected with synthetic sNPF, venom, CvBV or teratocytes; format: in vivo, Plutella xylostella; settings: 0.5 ng synthetic peptide, larvae whole body, 4L; n = 7-8; words
From the text: To analyse gene expression in different tissues, P. xylostella larvae were dissected under the microscope, followed by the collection of the silk gland, fat body, midgut, haemocytes and central nervous system (CNS, brain and ventral nerve cord). Haemocytes were collected on clean Parafilm membranes with capillaries by bleeding the larvae from a cut proleg. To explore gene expression at different instars of parasitised or non-parasitised larvae, non-parasitised larva was isolated individually using RNA-easy Isolation Reagent (Vazyme). Parasitoid larvae were removed before parasitised hosts were isolated. As for the measurement of other experiments, per larva with different treatments was isolated individually using RNA-easy Isolation Reagent according to the manufacturer’s instructions.
The quality and concentrations of total RNAs were estimated by electrophoresis and NanoDrop 2000 spectrophotometer (Thermo Fisher Scientific). First-strand cDNAs were synthesised using the ReverTra Ace qPCR RT kit (Toyobo) according to the manufacturer’s instructions. Both β-actin (GenBank Acc. No.: AB282645) and β-tubulin (GenBank Acc. No.: EU127912) of P. xylostella were used as internal controls. Primer sequences used for qPCR analysis are shown in Appendix Table S4. qPCR was performed by using THUNDERBIRD® SYBR qPCR Mix (Toyobo) on the CFX Connect real-time system (Bio-Rad). All qPCR assays were performed using four internal replicates and at least three biological replicates under the following conditions: 95 °C for 60 s and 40 cycles of 95 °C for 15 s and 60 °C for 30 s. Relative gene expression levels were calculated using the 2^−ΔΔCt method.
as §1

P. xylostella larvae [3] = test: Feeding time and feeding interval time; format: in vivo, Plutella xylostella; settings: sPxsNPF-1-injected, middle 4th instar; words
From the text: Appendix Figure S4. PxsNPF is mainly expressed in the CNS and midgut-trachea of the host as an appetite-suppressing hormone
(A) Relative mRNA levels of PxsNPF in different tissues of non-parasitized and C. vestalis-parasitized host larvae at late 3rd instar (n = 3). (B) Left: schematic diagram of the general composition and cell types of the midgut. EC, enterocyte; ISC, intestinal stem cell; EB, enteroblast; EE, enteroendocrine cell; BM, basement membrane; VM, visceral muscle. Right: PxsNPF (red) is expressed in the tracheae of the midgut (white arrowheads). Nuclei were labelled by DAPI (blue). NP: non-parasitized hosts, P: parasitized hosts. Scale bars, 200 μm. (C) Immunostaining of PxsNPF prepropeptide (red) in the whole midgut of non-parasitized and parasitized P. xylostella larvae at late 3rd-instar. White dashed boxes indicate areas magnified in Fig.
5E. Nuclei were labelled by DAPI (blue). Scale bar: 500 μm. (D) Feeding time (left, n = 40 for grey, n = 23 for blue, n = 54 for red, n = 29 for purple) and interval time (right, n = 35 for grey, n = 13 for blue, n = 33 for red, n = 25 for purple) of non-parasitized, C. vestalis-parasitized, and sPxsNPF-1-injected and sCvsNPF-injected P. xylostella larvae at middle 4th-instar during feeding behaviour. Data are represented as […]
Two-tailed unpaired Student’s t-test, except for (D) (One-way ANOVA and Tukey’s multiple comparison tests). […]

Substance: SVRSPSRRLRF-NH2 [sPxsNPF-1, synthetic short neuropeptide F-1 of Plutella xylostella]
- inhibition of forskolin-stimulated cAMP accumulation (PxsNPFR; HEK293/PxsNPFR, 10 μM forskolin + 500 μM IBMX, 15 min, various peptide concentrations, result in words): an inhibitory effect was not observed
- G protein coupling of the peptide-PxsNPFR complex (PxsNPFR; conclusion from cAMP and Ca2+ assays, words): regulates Gq protein-mediated signalling
- effect on haemolymph trehalose level, dose dependence (P. xylostella larvae [1]; 0.005, 0.05, 0.5 ng per larva): dependent on the concentration
- effect on haemolymph trehalose level (P. xylostella larvae [1]; synthetic PxsNPFs, injected into 3M larvae, measured at 4M, high dosage 0.5 ng per larva, n = 4-6): increased the haemolymph trehalose level
- PxGP mRNA expression [2]: remained unaffected
- PxHK mRNA expression [2]: upregulated
- PxTPS mRNA expression [2]: remained unaffected
- feeding interval time (P. xylostella larvae [3]): longer
- feeding time (P. xylostella larvae [3]): unaffected
